Measurements reported in ChEMBL document CHEMBL3400015, “Tertiary amides of Salinomycin: A new group of antibacterial agents against Bacillus anthracis and methicillin-resistant Staphylococcus epidermidis” (Bioorg Med Chem Lett, 2015).
Converted amounts (≈) assume the structure as drawn.

Key:
[1] = system: Staphylococcus aureus; experiment: Antimicrobial activity against Staphylococcus aureus […] after 18 hrs by twofold serial broth dilution method; assay type: functional
[2] = system: Staphylococcus epidermidis; experiment: Bactericidal activity against methicillin-resistant Staphylococcus epidermidis isolate 469/11 after 24 hrs; assay type: functional; conditions: isolate 469/11, 24 h, read-out: MBC99.9
[3] = system: Staphylococcus epidermidis; experiment: Bactericidal activity against methicillin-resistant Staphylococcus epidermidis isolate 405/10 after 24 hrs; assay type: functional; conditions: isolate 405/10, 24 h, read-out: MBC99.9
[4] = system: Staphylococcus epidermidis; experiment: Bactericidal activity against Staphylococcus epidermidis ATCC 35984 after 24 hrs; assay type: functional; conditions: ATCC 35984, 24 h, read-out: MBC99.9
[5] = system: Bacillus anthracis; experiment: Antimicrobial activity against Bacillus anthracis 34F2 after 18 hrs by twofold serial broth dilution method; assay type: functional; conditions: 34F2, 18 h
[6] = system: Staphylococcus epidermidis; experiment: Antimicrobial activity against methicillin-resistant Staphylococcus epidermidis isolate 458/11 after 18 hrs by twofold serial broth dilution method; assay type: functional; conditions: isolate 458/11, 18 h
[7] = system: Staphylococcus epidermidis; experiment: Antimicrobial activity against Staphylococcus epidermidis ATCC 12228 after 18 hrs by twofold serial broth dilution method; assay type: functional; conditions: ATCC 12228, 18 h
[8] = system: Escherichia coli; experiment: Bactericidal activity against Escherichia coli NCTC 8196 after 24 hrs; assay type: functional; conditions: NCTC 8196, 24 h, read-out: MBC99.9
[9] = system: Pseudomonas aeruginosa; experiment: Antimicrobial activity against Pseudomonas aeruginosa ATCC 15442 after 18 hrs by twofold serial broth dilution method; assay type: functional; conditions: ATCC 15442, 18 h
[10] = system: Staphylococcus aureus; experiment: Antimicrobial activity against Staphylococcus aureus ATCC 6538 after 18 hrs by twofold serial broth dilution method; assay type: functional; conditions: ATCC 6538, 18 h
[11] = system: Staphylococcus epidermidis; experiment: Antimicrobial activity against methicillin-resistant Staphylococcus epidermidis isolate 403/10 after 18 hrs by twofold serial broth dilution method; assay type: functional; conditions: isolate 403/10, 18 h
[12] = system: Staphylococcus epidermidis; experiment: Antimicrobial activity against methicillin-resistant Staphylococcus epidermidis isolate 459/11 after 18 hrs by twofold serial broth dilution method; assay type: functional; conditions: isolate 459/11, 18 h
[13] = system: Staphylococcus epidermidis; experiment: Bactericidal activity against Staphylococcus epidermidis ATCC 12228 after 24 hrs; assay type: functional; conditions: ATCC 12228, 24 h, read-out: MBC99.9
[14] = system: Pseudomonas aeruginosa; experiment: Bactericidal activity against Pseudomonas aeruginosa NCTC 6749 after 24 hrs; assay type: functional; conditions: NCTC 6749, 24 h, read-out: MBC99.9
[15] = system: Staphylococcus epidermidis; experiment: Antimicrobial activity against methicillin-resistant Staphylococcus epidermidis isolate 455/11 after 18 hrs by twofold serial broth dilution method; assay type: functional; conditions: isolate 455/11, 18 h
[16] = system: Staphylococcus epidermidis; experiment: Bactericidal activity against methicillin-resistant Staphylococcus epidermidis isolate 457/11 after 24 hrs; assay type: functional; conditions: isolate 457/11, 24 h, read-out: MBC99.9
[17] = system: Staphylococcus epidermidis; experiment: Bactericidal activity against methicillin-resistant Staphylococcus epidermidis isolate 422/10 after 24 hrs; assay type: functional; conditions: isolate 422/10, 24 h, read-out: MBC99.9
[18] = system: Staphylococcus aureus; experiment: Antimicrobial activity against Staphylococcus aureus ATCC 25923 after 18 hrs by twofold serial broth dilution method; assay type: functional; conditions: ATCC 25923, 18 h
[19] = system: Staphylococcus epidermidis; experiment: Bactericidal activity against methicillin-resistant Staphylococcus epidermidis isolate 454/11 after 24 hrs; assay type: functional; conditions: isolate 454/11, 24 h, read-out: MBC99.9
[20] = system: Staphylococcus epidermidis; experiment: Bactericidal activity against methicillin-resistant Staphylococcus epidermidis isolate 458/11 after 24 hrs; assay type: functional; conditions: isolate 458/11, 24 h, read-out: MBC99.9
[21] = system: Staphylococcus epidermidis; experiment: Antimicrobial activity against methicillin-resistant Staphylococcus epidermidis isolate 469/11 after 18 hrs by twofold serial broth dilution method; assay type: functional; conditions: isolate 469/11, 18 h
[22] = system: Escherichia coli; experiment: Bactericidal activity against Escherichia coli ATCC 10538 after 24 hrs; assay type: functional; conditions: ATCC 10538, 24 h, read-out: MBC99.9
[23] = system: Staphylococcus epidermidis; experiment: Bactericidal activity against methicillin-resistant Staphylococcus epidermidis isolate 403/10 after 24 hrs; assay type: functional; conditions: isolate 403/10, 24 h, read-out: MBC99.9
[24] = system: Bacillus subtilis; experiment: Genotoxicity in rec-positive Bacillus subtilis H17 at 2 ug/9 mm disc after 24 hrs by disc diffusion method; assay type: toxicity, organism-based
[25] = system: Staphylococcus epidermidis; experiment: Antimicrobial activity against methicillin-resistant Staphylococcus epidermidis isolate 470/11 after 18 hrs by twofold serial broth dilution method; assay type: functional; conditions: isolate 470/11, 18 h
[26] = system: Pseudomonas aeruginosa; experiment: Bactericidal activity against Pseudomonas aeruginosa ATCC 27853 after 24 hrs; assay type: functional; conditions: ATCC 27853, 24 h, read-out: MBC99.9
[27] = system: Staphylococcus aureus; experiment: Bactericidal activity against Staphylococcus aureus ATCC 6538 after 24 hrs; assay type: functional; conditions: ATCC 6538, 24 h, read-out: MBC99.9
[28] = system: Staphylococcus epidermidis; experiment: Antimicrobial activity against methicillin-resistant Staphylococcus epidermidis isolate 424/10 after 18 hrs by twofold serial broth dilution method; assay type: functional; conditions: isolate 424/10, 18 h
[29] = system: Staphylococcus epidermidis; experiment: Antimicrobial activity against methicillin-resistant Staphylococcus epidermidis isolate 461/11 after 18 hrs by twofold serial broth dilution method; assay type: functional; conditions: isolate 461/11, 18 h
[30] = system: Staphylococcus epidermidis; experiment: Bactericidal activity against methicillin-resistant Staphylococcus epidermidis isolate 424/10 after 24 hrs; assay type: functional; conditions: isolate 424/10, 24 h, read-out: MBC99.9
[31] = system: Staphylococcus epidermidis; experiment: Antimicrobial activity against methicillin-resistant Staphylococcus epidermidis isolate 457/11 after 18 hrs by twofold serial broth dilution method; assay type: functional; conditions: isolate 457/11, 18 h
[32] = system: Staphylococcus epidermidis; experiment: Bactericidal activity against methicillin-resistant Staphylococcus epidermidis isolate 460/11 after 24 hrs; assay type: functional; conditions: isolate 460/11, 24 h, read-out: MBC99.9
[33] = system: Staphylococcus epidermidis; experiment: Bactericidal activity against methicillin-resistant Staphylococcus epidermidis isolate 461/11 after 24 hrs; assay type: functional; conditions: isolate 461/11, 24 h, read-out: MBC99.9
[34] = system: Escherichia coli; experiment: Antimicrobial activity against Escherichia coli NCTC 8196 after 18 hrs by twofold serial broth dilution method; assay type: functional; conditions: NCTC 8196, 18 h
[35] = system: Staphylococcus epidermidis; experiment: Bactericidal activity against methicillin-resistant Staphylococcus epidermidis isolate 404/10 after 24 hrs; assay type: functional; conditions: isolate 404/10, 24 h, read-out: MBC99.9
[36] = system: Staphylococcus epidermidis; experiment: Antimicrobial activity against methicillin-resistant Staphylococcus epidermidis isolate 454/11 after 18 hrs by twofold serial broth dilution method; assay type: functional; conditions: isolate 454/11, 18 h
[37] = system: Staphylococcus aureus; experiment: Bactericidal activity against Staphylococcus aureus […] after 24 hrs; assay type: functional; conditions: read-out: MBC99.9
[38] = system: Staphylococcus epidermidis; experiment: Antimicrobial activity against methicillin-resistant Staphylococcus epidermidis isolate 409/10 after 18 hrs by twofold serial broth dilution method; assay type: functional; conditions: isolate 409/10, 18 h
[39] = system: Staphylococcus epidermidis; experiment: Bactericidal activity against methicillin-resistant Staphylococcus epidermidis isolate 459/11 after 24 hrs; assay type: functional; conditions: isolate 459/11, 24 h, read-out: MBC99.9
[40] = system: Staphylococcus epidermidis; experiment: Bactericidal activity against methicillin-resistant Staphylococcus epidermidis isolate 407/10 after 24 hrs; assay type: functional; conditions: isolate 407/10, 24 h, read-out: MBC99.9
[41] = system: Pseudomonas aeruginosa; experiment: Antimicrobial activity against Pseudomonas aeruginosa NCTC 6749 after 18 hrs by twofold serial broth dilution method; assay type: functional; conditions: NCTC 6749, 18 h
[42] = system: Staphylococcus epidermidis; experiment: Bactericidal activity against methicillin-resistant Staphylococcus epidermidis isolate 409/10 after 24 hrs; assay type: functional; conditions: isolate 409/10, 24 h, read-out: MBC99.9
[43] = system: Staphylococcus aureus; experiment: Bactericidal activity against Staphylococcus aureus NCTC 4163 after 24 hrs; assay type: functional; conditions: NCTC 4163, 24 h, read-out: MBC99.9

CC[C@@H](C(=O)[C@@H](C)[C@@H](O)[C@H](C)[C@@H]1O[C@@H]([C@@H](CC)C(=O)N(CC)CC)CC[C@@H]1C)[C@H]1O[C@]2(C=C[C@@H](O)[C@]3(CC[C@@](C)([C@H]4CC[C@](O)(CC)[C@H](C)O4)O3)O2)[C@H](C)C[C@@H]1C
MIC [1]: 4 µg/mL (≈ 4.96 µM)
MBC [2]: 256 µg/mL (≈ 318 µM)
MBC [3]: 256 µg/mL (≈ 318 µM)
MBC [4]: 128 µg/mL (≈ 159 µM)
MIC [5]: 1 µg/mL (≈ 1.24 µM)
MIC [6]: 4 µg/mL (≈ 4.96 µM)
MIC [7]: 2 µg/mL (≈ 2.48 µM)
MBC [8]: > 256 µg/mL
MIC [9]: > 256 µg/mL
MIC [10]: 2 µg/mL (≈ 2.48 µM)
MIC [11]: 4 µg/mL (≈ 4.96 µM)
MIC [12]: 4 µg/mL (≈ 4.96 µM)
MBC [13]: 64 µg/mL (≈ 79.4 µM)
MBC [14]: > 256 µg/mL
MIC [15]: 8 µg/mL (≈ 9.92 µM)
MBC [16]: 128 µg/mL (≈ 159 µM)
MBC [17]: 256 µg/mL (≈ 318 µM)
MIC [18]: 2 µg/mL (≈ 2.48 µM)
MBC [19]: 128 µg/mL (≈ 159 µM)
MBC [20]: 128 µg/mL (≈ 159 µM)
MIC [21]: 8 µg/mL (≈ 9.92 µM)
MBC [22]: > 256 µg/mL
MBC [23]: 256 µg/mL (≈ 318 µM)
diameter of the inhibition zone (DIZ) [24]: 26 mm
MIC [25]: 4 µg/mL (≈ 4.96 µM)
MBC [26]: > 256 µg/mL
MBC [27]: 64 µg/mL (≈ 79.4 µM)
MIC [28]: 8 µg/mL (≈ 9.92 µM)
MIC [29]: 4 µg/mL (≈ 4.96 µM)
MBC [30]: 256 µg/mL (≈ 318 µM)
MIC [31]: 4 µg/mL (≈ 4.96 µM)
MBC [32]: 256 µg/mL (≈ 318 µM)
MBC [33]: 128 µg/mL (≈ 159 µM)
MIC [34]: > 256 µg/mL
MBC [35]: 256 µg/mL (≈ 318 µM)
MIC [36]: 4 µg/mL (≈ 4.96 µM)
MBC [37]: 64 µg/mL (≈ 79.4 µM)
MIC [38]: 4 µg/mL (≈ 4.96 µM)
MBC [39]: 256 µg/mL (≈ 318 µM)
MBC [40]: 128 µg/mL (≈ 159 µM)
MIC [41]: > 256 µg/mL
MBC [42]: 256 µg/mL (≈ 318 µM)
MBC [43]: 64 µg/mL (≈ 79.4 µM)
